Key:
[1] = system: C. violaceum killing of C. elegans; experiment: C. elegans life span assay following C. violaceum infection; assay type: in vivo, Caenorhabditis elegans; conditions: C. violaceum cviI mutant
Method: Life Span Assays. C. elegans lifespan assays were completed with at least 100 wild type N2 worms for each condition. C. elegans eggs were harvested from a large population of gravid adults using a standard bleaching protocol (30 mL 5% bleach, 15 mL N KOH, 55 mL DH2O). Harvested eggs were placed on lawns of fresh E. coli OP50 and allowed to hatch and grow to the young adult (L4) stage before being moved onto lawns of C. violaceum. Worms were scored for survival each day and transferred to new C. violaceum lawns every two days until all worms had expired.
In the presence of the mutant strain, the median C. elegans lifespan is twelve days (FIG. 7A; DMSO control). Exogenous addition of the native autoinducer molecule, C6-HSL restored quorum sensing and complemented the cviI mutant's ability to kill C. elegans (median lifespan=4 days, FIG. 7A).

[2] = system: bacterial growth; experiment: Bacterial growth in presence of antagonist; assay type: cell-based, Chromobacterium violaceum
[3] = system: CviR-dependent violacein production; experiment: Violacein production in C. violaceum cviI mutant with exogenous C6-HSL; assay type: cell-based, Chromobacterium violaceum; conditions: 5 μM C6-HSL, 50 μM antagonist
Method: (§1) E. coli strains were grown overnight in LB medium with antibiotics at 37° C. and sub-cultured into fresh medium at a 1:100 dilution. Various AHL and antagonists were added at constant concentrations or titrated as stated. The gfp was measured on an Envision plate reader after 5 hours of growth at 37° C. C. violaceum strains were grown aerobically in 1 mL Nutrient Broth plus 1 mM tryptophan at 30° C. […] Cells were collected via centrifugation at 13000 rpm for 15 minutes. Pellets were resuspended in 1 mL of methanol and incubated at 42° C. for 1 hour. Samples were again collected via centrifugation at 13000 rpm for 5 minutes and analyzed for violacein by measuring optical density at 568 nm on a Beckman Coulter DU-800 spectrophotometer. For the dose-response analyses, all assays were performed in triplicate.
High-throughput chemical library screens had identified 15 molecules that inhibit AHL detection by the membrane-bound two-component AHL receptor LuxN (structures are provided in FIG. 8A). Experiments were undertaken to establish whether any of these LuxN antagonist molecules could also interfere with AHL binding to CviR. […] The native C6-HSL signal was added exogenously and held constant at 5 μM and violacein production was measured in the presence of 50 μM of each potential antagonist (FIG. 8B).

[4] = target: T1, CviR (Chromobacterium violaceum, UniProt D3W065); assay type: binding; parameters: made in house; host or cells: E. coli BL21(DE3) pLysS, plasmid pET23b; conditions: for DNA binding of ligand-loaded CviR to vioA promoter: CviR 100-500 nM
T1 sequence (D3W065 1-265): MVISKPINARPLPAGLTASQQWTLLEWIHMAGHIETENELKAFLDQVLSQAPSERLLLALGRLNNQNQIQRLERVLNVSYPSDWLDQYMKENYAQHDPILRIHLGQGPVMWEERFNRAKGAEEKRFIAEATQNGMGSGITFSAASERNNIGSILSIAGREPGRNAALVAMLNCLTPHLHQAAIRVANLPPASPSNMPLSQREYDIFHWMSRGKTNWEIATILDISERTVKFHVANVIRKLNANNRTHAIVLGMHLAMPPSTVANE
Method: (§2) CviR Overexpression and Purification. CviR was overexpressed in BL21(DE3) pLysS by growing an overnight culture in LB supplemented with 100 μg/mL ampicillin and 10 μg/mL chloramphenicol. The culture was diluted 1:50 into fresh LB supplemented with 100 μg/mL ampicillin and 10 μg/mL chloramphenicol and grown shaking at 37° C. to an OD600 of 0.4. Various AHL or antagonist molecules were added to at 50 μM and incubated an additional 30 minutes at 30° C., after which expression was induced by the addition of 100 μM IPTG (isopropyl-β-D-thiogalactopyranoside) for 4 hours at 30° C. Cells were harvested by centrifugation and lysed in 20 mM imidazole pH 8.0, 100 mM NaCl, 0.5 mM EDTA and 5% glycerol via a Micro-fluidizer processor (MicroFluidics). Protein was purified via ion-exchange using a Hitrap Heparin HP column (GE Healthcare). Protein was eluted with a 100 mM to 1 M NaCl gradient. Fractions containing CviR were pooled and diluted in lysis buffer devoid of NaCl, and then further purified by cation exchange chromatography using a Hitrap SP HP column (GE Healthcare). CviR was eluted with a 100 mM to 1 M NaCl gradient.
DNA probes for gel mobility shift analyses were generated by standard polymerase chain reaction using primers with a 5′ 6-FAM (fluorescein) tag (Integrated DNA Technologies). The target probe contained about 100 nucleotides of the vioA promoter. The control probe contained 300 bases of vioB intergenic DNA. 37 ng of each probe was incubated for 20 minutes at room temperature with the indicated amounts of CviR (0, 0.1, 0.2, 0.3, 0.4 and 0.5 μM) and 1 μg/μL poly-dIdC in 1× Gel shift buffer (40 mM Tris HCl pH 8.0, 100 mM KCL, 2 mM EDTA, 2 mM DTT, 10% glycerol, 200 μg/mL BSA). Gel mobility shifts were performed on 6% TGE-polyacrylamide gels and visualized using a Storm 860 Imaging System (Molecular Dynamics).
To further investigate the mechanism underlying antagonism of the CviR receptor, an examination was undertaken of whether the soluble CviR antagonist complexes were incapable of binding DNA, and thus unable to activate transcription. […] The CviR protein was also purified in complex with each of the synthetic antagonist molecules, 4606-4237, CTL, and CL. Performance of DNA gel mobility shift analyses enabled assessment of the binding of each of these purified, loaded protein complexes to the vioA promoter.
The reciprocal experiment tested whether C6-HSL could replace CL bound to CviR.

[5] = system: CviR-dependent violacein production; experiment: Violacein production in wild type C. violaceum, dose-response; assay type: cell-based; conditions: Chromobacterium violaceum, read-out: IC50 for inhibition of violacein production
Method: as §1
To determine if 4606-4237 inhibits violacein production specifically by interfering with CviR, 4606-4237 was tested for antagonism of CviR in the recombinant E. coli vioA-gfp assay. For these experiments, C6-HSL was held constant at 500 nM, while 4606-4237 was titrated from 1.3 nM to 100 μM (FIG. 3D). This concentration of native C6-HSL signal induces maximal gfp production in this heterologous assay system. Importantly, no C. violaceum components other than CviR are present in the recombinant E. coli assay strain. Thus, any inhibition occurring would be due to a specific interaction between the antagonist molecule 4606-4237 and CviR rather than an interaction of 4606-4237 with some unknown component required for violacein production in C. violaceum. […] Thus, 4606-4237 functions by disabling CviR-mediated activation of gene expression in both the C. violaceum in vivo violacein assay and the recombinant E. coli vioA-gfp assay.

[6] = target: T1, CviR; assay type: cell-based; parameters: made in house; host or cells: E. coli BL21(DE3) pLysS, plasmid pET23b; conditions: for EC50: E. coli expressing CviR, vioA-gfp reporter, read-out: EC50 for activation of vioA-gfp expression; for maximal level of vioA-gfp expression: compared with C6-HSL; for induction of vioA-gfp expression through CviR: even at 100 μM
Method: (§3) The vioA-gfp promoter fusion was constructed by amplifying the vioA promoter and cloning this region upstream of gfp in pEVS141 at the SphI and SalI sites. Cells containing the vioA-gfp construct were electroporated with the pET23 carrying cviR and selected on LB medium supplemented with 75 μg/mL ampicillin and 50 μg/mL kanamycin. The E. coli strain containing cviR and the vio:gfp reporter is named ELS1257.
as §1
To examine the specificity and sensitivity of CviR, an E. coli strain was engineered that expresses CviR and contains a plasmid harboring the vioA promoter fused to green fluorescent protein (gfp). Thus, the ability of CviR to activate transcription can be assessed by measuring gfp expression in the presence of various molecules.

[7] = target: T1, CviR; conditions: CviR expressed in E. coli, whole cell vs soluble extract, ligand 50 μM
Method: as §2
The solubility characteristics of CviR were analyzed in the presence of the various molecules under study. […] As controls, the protein was also expressed in the absence of any AHL or antagonist. In each case, whole cell and soluble fractions of cell lysates were analyzed by SDS-PAGE to assess whether the CviR protein in question had been stabilized.

[8] = target: T1, CviR; experiment: cell-based; assay type: cell-based; parameters: made in house; host or cells: E. coli BL21(DE3) pLysS, plasmid pET23b; conditions: constant 500 nM C6-HSL; read-out: IC50 for inhibition of vioA-gfp expression
Method: as §3, §1
However, binding of the longer acyl-tail length AHL molecules disrupts the transcriptional activation ability of CviR.
To determine if 4606-4237 inhibits violacein production specifically by interfering with CviR, 4606-4237 was tested for antagonism of CviR in the recombinant E. coli vioA-gfp assay. For these experiments, C6-HSL was held constant at 500 nM, while 4606-4237 was titrated from 1.3 nM to 100 μM (FIG. 3D). […] Importantly, no C. violaceum components other than CviR are present in the recombinant E. coli assay strain. Thus, any inhibition occurring would be due to a specific interaction between the antagonist molecule 4606-4237 and CviR rather than an interaction of 4606-4237 with some unknown component required for violacein production in C. violaceum.

Structure (SMILES)	DNA binding of ligand-loaded CviR to vioA promoter [4]	EC50 [6] [µM]	induction of vioA-gfp expression through CviR [6]	IC50 [8] [µM]	other results
Cc1cc(Cl)ccc1OCCCC(=O)NC1CCSC1=O (centres unmarked) [4606-4237, 4-(4-chloro-2-methylphenoxy)-N-(2-oxotetrahydrothiophen-3-yl)butanamide]	no ability to bind DNA	–	–	–	C. elegans median survival ([1]; C6-HSL 5 μM and 4606-4237 50 μM added simultaneously): twelve; effect on C. elegans ([1]; no C6-HSL, 4606-4237 50 μM): had little affect on C. elegans; inhibition of bacterial growth [2]: does not inhibit bacterial growth; violacein production [3]: completely abolished violacein production; IC50 [5]: 1.2 µM
CCCC(=O)N[C@H]1CCOC1=O [C4-HSL]	–	12	–	–	maximal level of vioA-gfp expression [6]: can induce maximal vioA-gfp expression
CCCCCC(=O)N[C@H]1CCOC1=O [C6-HSL, C6-homoserine lactone]	binds DNA with high affinity	0.075	–	–	median C. elegans lifespan ([1]; C6-HSL 5 μM added): 4 days; CviR folding and solubility in presence of ligand [7]: soluble; ligand exchange on loaded CviR, effect on DNA binding ([4]; 500 nM loaded CviR, competing ligand 0-10 μM): not likewise capable of replacing CL to generate fully competent DNA bound complex
CCCCCCCC(=O)N[C@H]1CCOC1=O [C8-HSL]	bound DNA with similar affinity to the C6-HSL loaded CviR complex	0.03	–	–	maximal level of vioA-gfp expression [6]: half of the maximal vioA-gfp expression induced by C6-HSL
CCCCCCCCCC(=O)N[C@H]1CCOC1=O [C10-HSL, reference compound]	does not abolish DNA binding	–	do not induce vioA-gfp expression	0.208	CviR folding and solubility in presence of ligand [7]: soluble
CCCCCCCCCCCC(=O)N[C@H]1CCOC1=O [C12-HSL]	no ability to bind DNA	–	do not induce vioA-gfp expression	0.494	–
CCCCCCCCCCCCCC(=O)N[C@H]1CCOC1=O [C14-HSL]	no ability to bind DNA	–	do not induce vioA-gfp expression	0.268	–
